Test results reported in patent US20250381194A1, “METHODS FOR MITIGATING THE EFFECTS OF LOW-LEVEL BLASTS THROUGH PHOSPHODIESTERASE-5 INHIBITION” (University of Kentucky Research Foundation, priority 2024, published 2025).
“Also recorded” adds a separate entry of the source.

Legend:
[1] = test system: mitochondrial volume and tight junction proteins in isolated brain capillaries; assay: Correlation of capillary mitochondrial volume (OXPHOS) and ZO-1, chronic delayed sildenafil study; type: in vivo, Sprague Dawley rats; conditions: 20 mg/kg oral gavage daily from 2 to 5 months post-blast; brain capillaries at 5 months post-rmbTBI
Protocol: Brain Capillary Isolation and Immunostaining. Half frozen rat brain from all groups was homogenized with isolation buffer (pH7.4 DPBS containing 5.5 mM glucose, 1 mM sodium pyruvate, and 1% BSA). The homogenate was centrifuged at 1000×g for 10 min at 4° C. to remove the supernatant. […] After evaluating the quality and concentration of capillary suspension under a bright field microscope, which may contain small amount of large vessel and cells, the isolated capillary sample was ready for the immunostaining analysis. […]
The expression of ZO-1 was quantified by measuring the mean fluorescence intensity by tracing the capillary under NIS-Elements analysis software. The total capillary area was measured by using NIS-Elements. For mitochondrial volume, the OXPHOS fluorescence from Z-stack images was quantified using Imaris (X64 9.6.1) using surface creation tool. […]

ZO-1 = assay: Tight junction integrity (ZO-1 immunostaining of cortical capillaries) seven days post-rmbTBI; type: in vivo, Sprague Dawley rats; conditions: 20 mg/kg high dose daily to day seven, vs rmbTBI vehicle
From the text: (§1) Blast Exposure. The MBD consists of a cylindrical steel tube, 12-inch internal diameter, separated into a 19-ft. expansion chamber and a 2.5-ft compression chamber. For these studies, compressed helium-driven mode was used to replicate military blast exposure. A 10-mil-thick (0.254 mm) biaxially-oriented polyethylene terephthalate (Mylar) membrane separates the two chambers. The Mylar membrane was actively ruptured by a 4-point blade affixed to a pneumatic cylinder to achieve desired static overpressure. The shock wave was recorded by face-on, reflected pressure (Kulite pitot-static pressure probe) and wall-mounted side-on static pressure sensors (Kulite). Data from each piezoresistive sensor was routed through sensor cables before being captured by the state-of-the-art TMX-18 (AstroNova™ Test & Measurement, 800 kHz sampling rate) and analyzed using AstroView. The rat subjects were secured in plastic netting to minimize but allow free body motion without neck flexion. The rat subjects were positioned 30 inches inside the tube and with lateral head exposure. An overpressure of 11 PSI was utilized, which is in the range where neurological disruption has been observed in operations involving breaching activity. In the studies underlying this example, Sprague Dawley rats were subjected to repeated blast exposure (2 blasts at 24 h interval). Capillary Isolation. […]

TOM20 = assay: Capillary-specific mitochondrial content (TOM20 staining) seven days post-rmbTBI; type: in vivo, Sprague Dawley rats; conditions: 20 mg/kg high dose daily to day seven, vs rmbTBI vehicle
From the text: as §1

GFAP = assay: Western blot for GFAP in cortical tissue seven days post-rmbTBI; type: in vivo, Sprague Dawley rats; conditions: rmbTBI (2 blasts, 24 h interval), vs rmbTBI vehicle
From the text: Blast Exposure. The MBD consists of a cylindrical steel tube, 12-inch internal diameter, separated into a 19-ft. expansion chamber and a 2.5-ft compression chamber. For these studies, compressed helium-driven mode was used to replicate military blast exposure. A 10-mil-thick (0.254 mm) biaxially-oriented polyethylene terephthalate (Mylar) membrane separates the two chambers. The Mylar membrane was actively ruptured by a 4-point blade affixed to a pneumatic cylinder to achieve desired static overpressure. The shock wave was recorded by face-on, reflected pressure (Kulite pitot-static pressure probe) and wall-mounted side-on static pressure sensors (Kulite). Data from each piezoresistive sensor was routed through sensor cables before being captured by the state-of-the-art TMX-18 (AstroNova™ Test & Measurement, 800 kHz sampling rate) and analyzed using AstroView. The rat subjects were secured in plastic netting to minimize but allow free body motion without neck flexion. The rat subjects were positioned 30 inches inside the tube and with lateral head exposure. […] Expression of peroxisome proliferator-activated receptor gamma coactivator 1-alpha (PGC-1α), glial fibrillary acidic protein (GFAP), and β-actin was assessed in cortical tissue using western blot. […] Expression of PGC-1a and β-actin was also assessed using in the hippocampal tissue of subjects using western blot. […]

[2] = test system: freezing behavior after rmbTBI; assay: Contextual fear conditioning test, chronic delayed sildenafil study; type: in vivo, Sprague Dawley rats; conditions: 20 mg/kg daily; 5 months post-blast; day 1 acquisition, days 2-4 extinction
Protocol: Animal Procedure. […] MRI (magnetic resonance imaging) was performed at 1.5 and 4.5 months post-blast. Fear conditioning test was performed at 5 months post-blast. At the end of the experiment, rats were euthanized and the brain tissue was collected after transcardial perfusion with PBS (FIG. 24). One hemisphere of the brain was snap frozen with liquid nitrogen for brain capillary isolation while another hemisphere of the brain was fixed with 4% paraformaldehyde (PFA). After 48 hours of fixation, the brain tissue was placed into PBS containing 30% sucrose for 72 hours. The sucrose saturated brain tissue was flash frozen in-25 to −35° C. isopentane and stored at −20° C. or proceeded to sectioning. Fear Conditioning Test. Contextual Fear Conditioning paradigm was performed over 4 days. On the acquisition day, rats were placed in a foot shock chamber with a camera within a sound-attenuating chamber and were allowed to explore freely for 2 min. After 2 min, a total of 6 electric shocks (0.75 mA, 2 s duration) were delivered at intervals of 60 s through the testing chamber floor, with shock delivery controlled by Med associates Inc. VideoFreeze™ Video Fear Conditioning Software. […] Video footage was later scored for freezing behavior using Med associates Inc. VideoFreeze™ Video Fear Conditioning Software. […]

[3] = test system: rat brain microvascular endothelial cells; assay: Mitochondrial Network Analysis (MiNA) with mitotracker green in cell culture; type: cell-based; conditions: sildenafil 1 μM in 1% DMSO overnight vs vehicle
From the text: Mitochondrial Mechanisms Targeting mbTBI. […] Mitochondrial Network Analysis (MiNA) workflow in ImageJ was used to examine mitochondrial parameters.

PGC-1α = assay: Western blot for PGC-1α in cortical and hippocampal tissue seven days post-rmbTBI; type: in vivo, Sprague Dawley rats; conditions: vs rmbTBI vehicle; for PGC-1α expression in cortex tissue: rmbTBI (2 blasts, 24 h interval)
From the text: Blast Exposure. The MBD consists of a cylindrical steel tube, 12-inch internal diameter, separated into a 19-ft. expansion chamber and a 2.5-ft compression chamber. For these studies, compressed helium-driven mode was used to replicate military blast exposure. A 10-mil-thick (0.254 mm) biaxially-oriented polyethylene terephthalate (Mylar) membrane separates the two chambers. The Mylar membrane was actively ruptured by a 4-point blade affixed to a pneumatic cylinder to achieve desired static overpressure. The shock wave was recorded by face-on, reflected pressure (Kulite pitot-static pressure probe) and wall-mounted side-on static pressure sensors (Kulite). Data from each piezoresistive sensor was routed through sensor cables before being captured by the state-of-the-art TMX-18 (AstroNova™ Test & Measurement, 800 kHz sampling rate) and analyzed using AstroView. The rat subjects were secured in plastic netting to minimize but allow free body motion without neck flexion. The rat subjects were positioned 30 inches inside the tube and with lateral head exposure. An overpressure of 11 PSI was utilized, which is in the range where neurological disruption has been observed in operations involving breaching activity. In the studies underlying this example, Sprague Dawley rats were subjected to repeated blast exposure (2 blasts at 24 h interval). Tissue Isolation. For downstream western blot, whole brain homogenate was collected during brain capillary isolation and mixed with 10× RIPA buffer (150 mM NaCl, 1% Triton X-100, 0.5% sodium deoxycholate, 0.1% SDS, 50 mM Tris, pH 8.0) supplemented with protease inhibitors. The samples were snap-frozen in liquid nitrogen and stored at −80° C. until further use. Mitochondrial Biogenesis and Astrocyte Homeostasis. […] Expression of peroxisome proliferator-activated receptor gamma coactivator 1-alpha (PGC-1α), glial fibrillary acidic protein (GFAP), and β-actin was assessed in cortical tissue using western blot. Cortical tissue was extracted and probed seven days post-rmbTBI. Expression of PGC-1a and β-actin was also assessed using in the hippocampal tissue of subjects using western blot. Hippocampal tissue was extracted and probed seven-days post-rmbTBI.

[4] = test system: cerebral blood flow (CBF); assay: MRI arterial spin labeling of cerebral blood flow, chronic delayed sildenafil study; type: in vivo, Sprague Dawley rats; conditions: 20 mg/kg daily, 2 and 4.5 months post-rmbTBI, between sham, rmbTBI+vehicle
Protocol: Animal Procedure. […] MRI (magnetic resonance imaging) was performed at 1.5 and 4.5 months post-blast. […] At the end of the experiment, rats were euthanized and the brain tissue was collected after transcardial perfusion with PBS (FIG. 24). One hemisphere of the brain was snap frozen with liquid nitrogen for brain capillary isolation while another hemisphere of the brain was fixed with 4% paraformaldehyde (PFA). After 48 hours of fixation, the brain tissue was placed into PBS containing 30% sucrose for 72 hours. The sucrose saturated brain tissue was flash frozen in-25 to −35° C. isopentane and stored at −20° C. or proceeded to sectioning.
Magnetic Resonance Imaging (MRI). MRI scanning was performed at 1.5 months and 4.5 months post-blast injury. Briefly, rats were placed under anesthesia with 4% isoflurane before placing it in the MRI scanner. Physiological monitoring was recorded every 10 min (with normal range 300-450 bpm) and rat body temperature was maintained while scanning under anesthesia. […] Labeling efficiency was calculated from a pCASL-encoded fast low-angle shot (FLASH) sequence (TR/TE=250/3.5 ms; in plane resolution 182×182 μm2; slice thickness 1.5 mm; flip angle 80° labeling time 200 ms; transit time 0 ms) image of the carotid artery just below the split and 5 mm above the labeling slice. […]

[5] = 5 mg/kg low dose daily to day seven
[6] = 20 mg/kg high dose daily to day seven

## CCCc1nn(C)c2c(=O)[nH]c(-c3cc(S(=O)(=O)N4CCN(C)CC4)ccc3OCC)nc12 [sildenafil]
[1]
  correlation between capillary mitochondrial content (OXPHOS) and tight junction integrity (ZO-1): significant positive correlation; also recorded: strengthens the correlation
ZO-1
  ZO-1 expression in cortical capillaries: increased; also recorded: non-significantly increased
TOM20
  TOM20 expression / capillary mitochondrial volume: significantly increased; also recorded: increased volume
GFAP; [5]
  GFAP expression in cortex tissue: increased
GFAP; [6]
  GFAP expression in cortex tissue: increased
[2]
  freezing episodes (fear extinction): significant time-related decrease
[3]
  mitochondrial branching: decreased
  mitochondrial footprint/density: increased
PGC-1α; [5]
  PGC-1α expression in cortex tissue: increased
PGC-1α; [6]
  PGC-1α expression in cortex tissue: increased
PGC-1α; 20 mg/kg high dose daily to day seven, rmbTBI
  PGC-1α expression in hippocampal tissue: significantly increased
[4]
  regional cerebral blood flow (CBF) in cortex, hippocampus and amygdala: No significant differences
